{"source": "patent US20040131648A1", "about": "“Nuclear hormone receptor compounds, products and methods employing same” (The Procter & Gamble Company, priority 2002, published 2004)", "system": "area of the skin in need of beautifying", "assay": "Topical administration of beta-ionol analog to human skin", "assay_type": "in vivo", "conditions": "daily treatments, after two weeks", "protocol": "A Beta-ionol analog, melafleur alcohol, is administered topically to a human directly onto an area of the skin in need of beautifying.", "data": [{"smiles": "CC1(C)CCCC2=C1CC(CO)CC2", "note": "(stereo not shown) [melafleur alcohol, 2-Naphthalenemethanol, 1,2,3,4,5,6,7,8-octahydro-8,8-dimethyl-]", "values": [{"measurement": "health and vitality of treated areas of the skin", "value": "increased health and vitality"}]}]}
